Assays:
ulcerative colitis mice = assay: Mice ulcerative colitis (DSS); type: in vivo, BALB/c mice; settings: for Total times of hematochezia within the four periods / Colon length / IL-1 content: DSS mice; for Colon length: four periods; for IL-1 content: serum, ELISA
[1] = test system: mice pain response induced by hot plate; assay: Mice pain response induced by hot plate; type: in vivo, ICR mice; settings: for Pain threshold: hot plate 55°C
Outline: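 Female ICR mice (20±2 g) dosed intragastrically for 7 consecutive days. Latency to hind-paw licking on a 55±0.5° C hot plate measured at 30, 60, 90 and 120 min after the last dose, with a 60 s cap. Mice with baseline latency <5 s or >30 s, or jumping, excluded.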

[2] = test system: reserpine-induced mice migraine; assay: Reserpine-induced mice migraine; type: in vivo, ICR mice; settings: for Blood coagulation time: reserpine 0.2 mg/kg sc mice, 1 h after final administration; for brain tissue 5-HT / Times of tail suspension (struggling times within 2 min): reserpine mice; for Times of tail suspension (struggling times within 2 min): 9th day
[3] = test system: mice writhing caused by acetic acid; assay: Mice writhing caused by acetic acid; settings: for Writhing times: 1 h before 0.7% acetic acid ip, within 20 min; for Latent time: time to first writhing; for Inhibition ratio: writhing inhibition
Method: Each compound was prepared into a suspension by 0.5% sodium carboxymethylcellulose respectively, and then set according to the dose, and each administration group was administered intragastrically; the model group was administered intragastrically an equal volume of 0.5% sodium carboxymethylcellulose.
Mice were intraperitoneally injected with acetic acid to cause a large area and more lasting painful stimuli in deep enterocoelia, causing mice to produce writhing responses. After being administered for 1 h, each dose group was intraperitoneally injected with 0.7% acetic acid-normal saline solution (0.1 ml/10 g).
The time (pain latent time) that the mice started to appear writhing after being intraperitoneally injected with acetic acid was recorded.
The writhing response times of each mouse within 20 min were recorded after injecting acetic acid to cause pain, and then, the writhing inhibition ratio of each administration group was calculated.
Writhing inhibition ratio = [(writhing times of the control group -writhing times of the administration group)/writhing times of the control group] × 100%
Experimental data is shown by x±s and subjected to variance analysis by SPSS 15.0 software.

How did the “Total times of hematochezia within the four periods” value (ulcerative colitis mice; high dose 30 mg/kg ig) turn out when `O=C(Nc1cccc(Cl)c1)C1CCN(C(=O)c2cc3ccccc3[nH]2)CC1` [MAGLZ-II-18] was run?
The value was 32.80±4.37.

What about the Colon length (ulcerative colitis mice; high dose 30 mg/kg ig) of the same molecule?
The Colon length was 6.73±0.63 cm.

What about the IL-1 content (ulcerative colitis mice; high dose 30 mg/kg ig) of the same molecule?
The IL-1 content was 46.98 ± 7.56 pg/mL.

And the “Total times of hematochezia within the four periods” value (ulcerative colitis mice; low dose 7.5 mg/kg ig)?
The value was 32.80±4.64.

And the Colon length (ulcerative colitis mice; low dose 7.5 mg/kg ig)?
The Colon length was 6.44±0.64 cm.

And the IL-1 content (ulcerative colitis mice; low dose 7.5 mg/kg ig)?
Its IL-1 content is 46.15 ± 9.65 pg/mL.

What about the “Total times of hematochezia within the four periods” value (ulcerative colitis mice; middle dose 15 mg/kg ig) of the same molecule?
Its value is 33.90±4.77.

And the Colon length (ulcerative colitis mice; middle dose 15 mg/kg ig)?
Its Colon length is 6.37±0.39 cm.

And the IL-1 content (ulcerative colitis mice; middle dose 15 mg/kg ig)?
Its IL-1 content is 49.01 ± 5.65 pg/mL.

What about the “IL-1 content, in words” value (ulcerative colitis mice; compared with the model group) of the same molecule?
Its value is “decrease”.

And the “colon length, in words” value (ulcerative colitis mice; compared with the model group)?
The value was “significantly increase”.

And the “total times of hematochezia, in words” value (ulcerative colitis mice; compared with the model group)?
Its value is “reduce”.

And the “pain thresholds of the thermal-stimulus mice, in words” value ([1]; compared with the model group)?
Its value is “significantly extend”.

And the Pain threshold ([1]; high dose 30 mg/kg ig 7 d, 30 min after final administration)?
The Pain threshold was 26.73 ± 7.37 s.

What about the Pain threshold ([1]; high dose 30 mg/kg ig 7 d, 60 min) of the same molecule?
The Pain threshold was 27.22 ± 7.29 s.

What about the Pain threshold ([1]; high dose 30 mg/kg ig 7 d, 90 min) of the same molecule?
Its Pain threshold is 27.86 ± 7.93 s.

And the Pain threshold ([1]; high dose 30 mg/kg ig 7 d, 120 min)?
The Pain threshold was 27.62 ± 10.01 s.

And the Pain threshold ([1]; low dose 7.5 mg/kg ig 7 d, 30 min after final administration)?
The Pain threshold was 26.33 ± 7.52 s.

And the Pain threshold ([1]; low dose 7.5 mg/kg ig 7 d, 60 min)?
The Pain threshold was 26.74 ± 7.05 s.

And the Pain threshold ([1]; low dose 7.5 mg/kg ig 7 d, 90 min)?
Its Pain threshold is 27.16 ± 7.32 s.

What about the Pain threshold ([1]; low dose 7.5 mg/kg ig 7 d, 120 min) of the same molecule?
The Pain threshold was 26.64 ± 10.03 s.

And the Pain threshold ([1]; middle dose 15 mg/kg ig 7 d, 30 min after final administration)?
Its Pain threshold is 26.41 ± 7.53 s.

And the Pain threshold ([1]; middle dose 15 mg/kg ig 7 d, 60 min)?
Its Pain threshold is 27.09 ± 7.53 s.

And the Pain threshold ([1]; middle dose 15 mg/kg ig 7 d, 90 min)?
The Pain threshold was 27.58 ± 7.71 s.

And the Pain threshold ([1]; middle dose 15 mg/kg ig 7 d, 120 min)?
Its Pain threshold is 27.38 ± 9.97 s.

And the “blood coagulation time, in words” value ([2]; compared with the model group)?
Its value is “significantly extend”.

What about the “level of 5-HT in the brain tissue, in words” value ([2]; compared with the model group) of the same molecule?
The value was “significantly increase”.

And the “times of the tail suspension activity, in words” value ([2]; compared with the model group)?
Its value is “significantly increase”.

And the Blood coagulation time ([2]; high dose 30 mg/kg ig 10 d)?
Its Blood coagulation time is 241.5 ± 41.63 S.

What about the Blood coagulation time ([2]; low dose 7.5 mg/kg ig 10 d) of the same molecule?
Its Blood coagulation time is 186.5±51.71 S.

What about the Blood coagulation time ([2]; middle dose 15 mg/kg ig 10 d) of the same molecule?
Its Blood coagulation time is 212.63±46.02 S.

And the “brain tissue 5-HT” value ([2]; high dose 30 mg/kg ig 10 d)?
The value was 2.08 ± 0.59 nmol/g.

And the “Times of tail suspension (struggling times within 2 min)” value (“Times of tail suspension” for short) ([2]; high dose 30 mg/kg ig)?
Its value is 16.51±4.38.

What about the “brain tissue 5-HT” value ([2]; low dose 7.5 mg/kg ig 10 d) of the same molecule?
Its value is 1.13 ± 0.45 nmol/g.

And the “Times of tail suspension” value ([2]; low dose 7.5 mg/kg ig)?
Its value is 11.88±4.02.

And the “brain tissue 5-HT” value ([2]; middle dose 15 mg/kg ig 10 d)?
The value was 1.54 ± 0.54 nmol/g.

And the “Times of tail suspension” value ([2]; middle dose 15 mg/kg ig)?
Its value is 13.75±4.56.

And the Writhing times ([3]; high dose 30 mg/kg ig)?
The Writhing times was 15.8±15.3.

And the Latent time ([3]; high dose 30 mg/kg ig)?
The Latent time was 410.9 ± 186.5 s.

What about the Inhibition ratio ([3]; high dose 30 mg/kg ig) of the same molecule?
The Inhibition ratio was 59.8%.

And the Writhing times ([3]; low dose 7.5 mg/kg ig)?
The Writhing times was 25.0±13.5.

What about the Latent time ([3]; low dose 7.5 mg/kg ig) of the same molecule?
The Latent time was 318.7 ± 120.2 s.

What about the Inhibition ratio ([3]; low dose 7.5 mg/kg ig) of the same molecule?
Its Inhibition ratio is 36.4%.

What about the Writhing times ([3]; middle dose 15 mg/kg ig) of the same molecule?
The Writhing times was 21.8±12.4.

And the Latent time ([3]; middle dose 15 mg/kg ig)?
The Latent time was 381.4 ± 127.1 s.

What about the Inhibition ratio ([3]; middle dose 15 mg/kg ig) of the same molecule?
The Inhibition ratio was 44.5%.

— patent US20230090255A1, “MAGL INHIBITOR, PREPARATION METHOD THEREFOR AND USE THEREOF” (LUNAN PHARMACEUTICAL GROUP CORPORATION, priority 2019, published 2023)
